Experimental data taken from US20220000835A1, “METHOD FOR TREATING CANCER WITH A COMBINATION OF QUERCETIN AND A CHEMOTHERAPY AGENT” (Quercis Pharma A.G., priority 2014, published 2022).

Key:
[1] = system: metastatic bladder cancer; assay: Patient with tumor from metastatic bladder cancer, PET scan and patient report; type: in vivo, human; conditions: patient bearing a tumor from metastatic bladder cancer
Procedure: In a particular example, a patient bearing a tumor resulting from metastatic bladder cancer failed monotherapy with cisplatin. Subsequently, the patient was treated daily with 100 mg cyclophosphamide together with a composition containing 2 g of quercetin. […] Of note, this patient typically would not have been treated further after failing the monotherapy with cisplatin.

[2] = Stabilization of quercetin by vitamin B3 and/or vitamin C; type: physicochemical; conditions: in the presence of one or both of vitamin B3 and vitamin C

stability of quercetin [2] | Compound | outcome of monotherapy [1]
– | N.N.[Cl][Pt][Cl] [cisplatin] | failed
stabilized | O=c1c(O)c(-c2ccc(O)c(O)c2)oc2cc(O)cc(O)c12 [quercetin] | –
